From PubChem BioAssay (NCI)
Where “and” joins values, the source holds several entries; their conditions need not be identical. Equal entries are not always repeated.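 Compound exposure: 48 hours, 5 concentrations, 96-well plates. Here, GI50 denotes the concentration required for 50% inhibition of growth. TGI is the concentration that stops growth completely.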

How the values were obtained:
Assay in all cases: DTP human tumour cell line panel, 48 h
DLD-1 colon = system: DLD-1 colon
MCF7 breast = system: MCF7 breast
DMS 114 small cell lung = system: DMS 114 small cell lung
HOP-18 NSCLC = system: HOP-18 NSCLC
BT-549 breast = system: BT-549 breast
HS 578T breast = system: HS 578T breast
T-47D breast = system: T-47D breast
MDA-MB-231 breast = system: MDA-MB-231 breast
M19-MEL melanoma = system: M19-MEL melanoma
PC-3 prostate = system: PC-3 prostate

Row | Structure (SMILES) | TGI (DLD-1 colon) | TGI (MCF7 breast) [µM] | TGI (DMS 114 small cell lung) | TGI (HOP-18 NSCLC) | TGI (BT-549 breast) [µM] | TGI (HS 578T breast) [µM] | TGI (T-47D breast) [µM] | TGI (MDA-MB-231 breast) [µM] | TGI (M19-MEL melanoma) [µM] | TGI (PC-3 prostate) [µM] | GI50 (HOP-18 NSCLC) | GI50 (M19-MEL melanoma) [µM] | GI50 (DLD-1 colon) [µM] | GI50 (DMS 114 small cell lung) [µM]
1 | Cc1cc(=O)oc2c(C3=NN(C=O)C(c4ccccc4)C3)c(O)ccc12 (stereo not given) | > 100 µM | > 95.5 | > 100 µM | > 100 µM | > 100 | > 93.2 | > 100 | > 100 | > 100 | > 100 | – | – | – | –
2 | C/C(=N\Nc1ccccc1)c1sc(-c2nc(C)c(/C(C)=N/Nc3ccccc3)s2)nc1C | > 100 µM | – | > 30.8 µM | > 96.6 µM | – | – | – | – | > 85.2 | – | – | – | – | –
3 | NC(Cc1ccccc1)C(=O)OCN1C(=O)C2C3C=CC(C2C1=O)C1C2C(=O)N(COC(=O)C(N)Cc4ccccc4)C(=O)C2C31 (stereo not given) | 51.4 µM and 60.6 µM | – | 40.4 µM and 33.8 µM | > 100 µM and 52.1 µM | – | – | – | – | 38.4 | – | 45.3 µM and 20 µM | 21.6 | – | –
4 | CC(=O)OC1C[C@H]2C(OC(=O)c3ccccc3)C3C4(OC(C)=O)COC4C[C@H](OC(C)=O)[C@@]3(C)C(OC(C)=O)[C@H](OC(C)=O)C(=C1C)C2(C)C (stereo not given in full) | > 100 µM | – | > 100 µM | > 100 µM | – | – | – | – | > 100 | – | – | – | – | –
5 | COc1cccc(/C=N/[N-]C(=O)c2ccncc2)c1[O-].[Mn+2].[OH3+] | > 100 µM | – | 58.7 µM | > 100 µM | – | – | – | – | 46.4 | – | 14.7 µM | 7.54 | 5.23 | 14.6
6 | Cc1noc2cccc(O)c12 | > 100 µM | – | > 100 µM | > 100 µM | – | – | – | – | > 100 | – | – | – | – | –
7 | CCc1cccc(C(C)C)c1NC(=O)CC1Sc2ccccc2NC1=O (stereo not given) | > 100 µM | – | > 100 µM | > 100 µM | – | – | – | – | > 100 | – | – | – | – | –
